Laboratory results: US20210015793A1, “COMPOUNDS FOR TREATING CNS- AND NEURODEGENERATIVE DISEASES” (ETH ZURICH, priority 2018, published 2021)

System: Mpp1
Assay: Immunoblot of Mpp1 protein content in PBMN cells of aged B6 mice
Type: in vivo, mouse
Conditions: 18-month-old B6 mice treated for 15 months in drinking water
Excerpt: For protein separation by SDS-PAGE (Laemmli system), the protein pellet can be dissolved in SDS-PAGE sample buffer supplemented with SDS. As an alternative, sample buffer for native gel electrophoresis can be added. According to the original protocol, the SDS-PAGE Laemmli sample buffer contains 2% SDS, 0.1 M DTT (or 5% mercaptoethanol). To improve disaggregation of aggregated proteins, the buffer can be supplemented without or with urea ranging from about 0 M-8 M, preferably about 6 M urea and incubated for about 10 min to 24 h, preferably about 90 min at room temperature. Proteins can be stored frozen (about […]) at a concentration ranging from about 0.01-100 mg/ml, preferably about 0.5 mg-1 mg/ml, for further use. It may be further desirable to dilute the solubilisate, for example, diluting the supernatant solubilisate by 1:1-1:20, preferably 1:5, in a suitable buffer as described above (preferably supplemented with protease inhibitors). Before immunoblot detection of proteins, proteins are separated. For separation of proteins, one- or two-dimensional SDS-PAGE can be applied. […]

O=C(C1=C(O)C(c2ccccc2)N(c2ccc3c(c2)OCO3)C1=O)C1CC1 (centres unmarked) [Compound-1, 1-(1,3-benzodioxol-5-yl)-4-(cyclopropane-carbonyl)-3-hydroxy-2-phenyl-2H-pyrrol-5-one]
Mpp1 protein content in PBMN cells: significantly decreased the content of the senescence marker, Mpp1

O=C(C1=C(O)C(c2ccc(F)cc2)N(c2ccc3c(c2)OCO3)C1=O)C1CC1 (centres unmarked) [Compound-1F, 1-(1,3-Benzodioxol-5-yl)-4-(cyclopropanecarbonyl)-2-(4-fluorophenyl)-3-hydroxy-2H-pyrrol-5-one]
Mpp1 protein content in PBMN cells: significantly decreased the content of the senescence marker, Mpp1
